# Patent US10201586B2 (dated 2019)
# Where a SMILES comes first, the peptide text is derived from it.
# Experiments:
# TFPI [1] = biological target: T1, TFPI (Homo sapiens, UniProt P10646); test: Extrinsic Tenase Inhibition assay | % Inhibition @ 2.5µM
# TFPI [2] = biological target: T1, TFPI; test: % Inhibition @ 2.5µM
# TFPI [3] = biological target: T1, TFPI; test: IC50 [nM]
# Target sequence in this assay (P10646 29-304 limits assumed): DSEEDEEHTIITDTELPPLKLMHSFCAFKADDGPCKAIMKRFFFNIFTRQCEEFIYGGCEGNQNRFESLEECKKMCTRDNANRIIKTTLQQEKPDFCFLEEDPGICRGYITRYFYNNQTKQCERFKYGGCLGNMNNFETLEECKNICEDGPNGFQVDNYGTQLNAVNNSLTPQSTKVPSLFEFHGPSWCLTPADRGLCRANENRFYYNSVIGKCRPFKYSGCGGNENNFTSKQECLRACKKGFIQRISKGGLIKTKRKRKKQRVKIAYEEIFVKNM
Extrinsic Tenase Inhibition assay | % Inhibition @ […] (TFPI [1]),% Inhibition @ […] (TFPI [2]),IC50 (TFPI [3]),Compound
1%,0%,–,Ac-SGYASFPLAVQLHVSKASKEMALARLYYKTS-NH2 (SEQ ID NO: 2137) [JBT0676]
–,–,37.4 µM,CSCC[C@H](NC(=O)[C@H](CCC(=O)O)NC(=O)[C@H](CCCCN)NC(=O)[C@H](CO)NC(=O)[C@H](C)NC(=O)[C@H](CCCCN)NC(=O)[C@H](CO)NC(=O)[C@@H](NC(=O)[C@H](Cc1c[nH]cn1)NC(=O)[C@H](CC(C)C)NC(=O)[C@H](CCC(N)=O)NC(=O)[C@@H](NC(=O)[C@H](C)NC(=O)[C@H](CC(C)C)NC(=O)[C@@H]1CCCN1C(=O)[C@H](Cc1ccccc1)NC(=O)[C@H](CO)NC(=O)[C@H](C)NC(=O)[C@H](Cc1ccc(O)cc1)NC(=O)CNC(=O)[C@H](CO)NC(C)=O)C(C)C)C(C)C)C(=O)N[C@@H](C)C(=O)N[C@@H](CC(C)C)C(=O)N[C@@H](C)C(=O)N[C@@H](CCCNC(=N)N)C(=O)N[C@@H](CC(C)C)C(=O)N[C@@H](Cc1ccc(O)cc1)C(=O)N[C@@H](Cc1ccc(O)cc1)C(=O)N[C@@H](CCCCN)C(=O)N[C@H](C(=O)N[C@@H](CO)C(N)=O)[C@@H](C)O [JBT0676 | 2137] (Ac-SGYASFPLAVQLHVSKASKEMALARLYYKTS-NH2)
–,–,2.51 µM,CSCC[C@H](NC(=O)[C@H](CCC(=O)O)NC(=O)[C@H](CCCCN)NC(=O)[C@H](CO)NC(=O)[C@H](CCCNC(=N)N)NC(=O)[C@H](CCCCN)NC(=O)[C@H](CO)NC(=O)[C@@H](NC(=O)[C@H](Cc1c[nH]cn1)NC(=O)[C@H](CC(C)C)NC(=O)[C@H](C)NC(=O)[C@@H](NC(=O)[C@H](C)NC(=O)[C@H](CC(C)C)NC(=O)[C@@H]1CCCN1C(=O)[C@H](Cc1ccccc1)NC(=O)[C@H](CO)NC(=O)[C@H](C)NC(=O)[C@H](Cc1ccc(O)cc1)NC(=O)CNC(=O)[C@H](CO)NC(C)=O)C(C)C)C(C)C)C(=O)N[C@@H](C)C(=O)N[C@@H](CC(C)C)C(=O)N[C@@H](C)C(=O)N[C@@H](CCCNC(=N)N)C(=O)N[C@@H](CC(C)C)C(=O)N[C@@H](Cc1ccc(O)cc1)C(=O)N[C@@H](Cc1ccc(O)cc1)C(=O)N[C@@H](CCCCN)C(=O)N[C@H](C(=O)N[C@@H](CO)C(N)=O)[C@@H](C)O [JBT0670 | 2007] (Ac-SGYASFPLAVALHVSKRSKEMALARLYYKTS-NH2)
–,–,13.8 µM,CSCC[C@H](NC(=O)[C@H](CCC(=O)O)NC(=O)[C@H](CCCCN)NC(=O)[C@H](CO)NC(=O)[C@H](CCCNC(=N)N)NC(=O)[C@H](CCCCN)NC(=O)[C@H](CO)NC(=O)[C@@H](NC(=O)[C@H](Cc1c[nH]cn1)NC(=O)[C@H](CC(C)C)NC(=O)[C@H](CCC(N)=O)NC(=O)[C@@H](NC(=O)[C@H](C)NC(=O)[C@H](CC(C)C)NC(=O)[C@@H]1CCCN1C(=O)[C@H](Cc1ccccc1)NC(=O)[C@H](CO)NC(=O)[C@H](C)NC(=O)[C@H](C)NC(=O)CNC(=O)[C@H](CO)NC(C)=O)C(C)C)C(C)C)C(=O)N[C@@H](C)C(=O)N[C@@H](CC(C)C)C(=O)N[C@@H](C)C(=O)N[C@@H](CCCNC(=N)N)C(=O)N[C@@H](CC(C)C)C(=O)N[C@@H](Cc1ccc(O)cc1)C(=O)N[C@@H](Cc1ccc(O)cc1)C(=O)N[C@@H](CCCCN)C(=O)N[C@H](C(=O)N[C@@H](CO)C(N)=O)[C@@H](C)O [JBT0662 | 2131] (Ac-SGAASFPLAVQLHVSKRSKEMALARLYYKTS-NH2)
–,–,13.5 µM,CSCC[C@H](NC(=O)[C@H](CCC(=O)O)NC(=O)[C@H](CCCCN)NC(=O)[C@H](CO)NC(=O)[C@H](CCCNC(=N)N)NC(=O)[C@H](CCCCN)NC(=O)[C@H](CO)NC(=O)[C@@H](NC(=O)[C@H](Cc1c[nH]cn1)NC(=O)[C@H](CC(C)C)NC(=O)[C@H](CCC(N)=O)NC(=O)[C@@H](NC(=O)[C@H](C)NC(=O)[C@H](CC(C)C)NC(=O)[C@@H]1CCCN1C(=O)[C@H](Cc1ccccc1)NC(=O)[C@H](CO)NC(=O)[C@H](C)NC(=O)[C@H](Cc1ccc(O)cc1)NC(=O)CNC(=O)[C@H](CO)NC(C)=O)C(C)C)C(C)C)C(=O)N[C@@H](C)C(=O)N[C@@H](CC(C)C)C(=O)N[C@@H](C)C(=O)N[C@@H](CCCNC(=N)N)C(=O)N[C@@H](CC(C)C)C(=O)N[C@@H](C)C(=O)N[C@@H](Cc1ccc(O)cc1)C(=O)N[C@@H](CCCCN)C(=O)N[C@H](C(=O)N[C@@H](CO)C(N)=O)[C@@H](C)O [JBT0686 | 2140] (Ac-SGYASFPLAVQLHVSKRSKEMALARLAYKTS-NH2)

# The next lines start with the compound.
Compound,Extrinsic Tenase Inhibition assay | % Inhibition @ […] (TFPI [1]),% Inhibition @ […] (TFPI [2]),IC50 (TFPI [3])
CSCC[C@H](NC(=O)[C@H](CCC(=O)O)NC(=O)[C@H](CCCCN)NC(=O)[C@H](C)NC(=O)[C@H](CCCNC(=N)N)NC(=O)[C@H](CCCCN)NC(=O)[C@H](CO)NC(=O)[C@@H](NC(=O)[C@H](Cc1c[nH]cn1)NC(=O)[C@H](CC(C)C)NC(=O)[C@H](CCC(N)=O)NC(=O)[C@@H](NC(=O)[C@H](C)NC(=O)[C@H](CC(C)C)NC(=O)[C@@H]1CCCN1C(=O)[C@H](Cc1ccccc1)NC(=O)[C@H](CO)NC(=O)[C@H](C)NC(=O)[C@H](Cc1ccc(O)cc1)NC(=O)CNC(=O)[C@H](CO)NC(C)=O)C(C)C)C(C)C)C(=O)N[C@@H](C)C(=O)N[C@@H](CC(C)C)C(=O)N[C@@H](C)C(=O)N[C@@H](CCCNC(=N)N)C(=O)N[C@@H](CC(C)C)C(=O)N[C@@H](Cc1ccc(O)cc1)C(=O)N[C@@H](Cc1ccc(O)cc1)C(=O)N[C@@H](CCCCN)C(=O)N[C@H](C(=O)N[C@@H](CO)C(N)=O)[C@@H](C)O [JBT0677 | 2009] (Ac-SGYASFPLAVQLHVSKRAKEMALARLYYKTS-NH2),–,–,1.91 µM
CSCC[C@H](NC(=O)[C@H](CCC(=O)O)NC(=O)[C@H](CCCCN)NC(=O)[C@H](CO)NC(=O)[C@H](CCCNC(=N)N)NC(=O)[C@H](CCCCN)NC(=O)[C@H](CO)NC(=O)[C@@H](NC(=O)[C@H](Cc1c[nH]cn1)NC(=O)[C@H](CC(C)C)NC(=O)[C@H](CCC(N)=O)NC(=O)[C@@H](NC(=O)[C@H](C)NC(=O)[C@H](CC(C)C)NC(=O)[C@@H]1CCCN1C(=O)[C@H](Cc1ccccc1)NC(=O)[C@H](CO)NC(=O)[C@H](C)NC(=O)[C@H](Cc1ccc(O)cc1)NC(=O)CNC(=O)[C@H](CO)NC(=O)[C@H](CO)NC(=O)CN)C(C)C)C(C)C)C(=O)N[C@@H](C)C(=O)N[C@@H](CC(C)C)C(=O)N[C@@H](C)C(=O)N[C@@H](CCCNC(=N)N)C(=O)N[C@@H](CC(C)C)C(=O)N[C@@H](Cc1ccc(O)cc1)C(=O)N[C@@H](Cc1ccc(O)cc1)C(=O)N[C@@H](CCCCN)C(=O)N[C@H](C(=O)N[C@@H](CO)C(=O)O)[C@@H](C)O [JBT0788] (H-GSSGYASFPLAVQLHVSKRSKEMALARLYYKTS-OH),–,–,16.2 µM
CSCC[C@H](NC(=O)[C@H](CCC(=O)O)NC(=O)[C@H](CCCCN)NC(=O)[C@H](CO)NC(=O)[C@H](CCCNC(=N)N)NC(=O)[C@H](CCCCN)NC(=O)[C@H](CO)NC(=O)[C@@H](NC(=O)[C@H](Cc1c[nH]cn1)NC(=O)[C@H](CC(C)C)NC(=O)[C@H](CCC(N)=O)NC(=O)[C@@H](NC(=O)[C@H](C)NC(=O)[C@H](CC(C)C)NC(=O)[C@@H]1CCCN1C(=O)[C@H](Cc1ccccc1)NC(=O)[C@H](CO)NC(=O)[C@H](C)NC(=O)[C@H](Cc1ccc(O)cc1)NC(=O)CNC(=O)[C@H](CO)NC(C)=O)C(C)C)C(C)C)C(=O)N[C@@H](C)C(=O)N[C@@H](CC(C)C)C(=O)N[C@@H](C)C(=O)N[C@@H](CCCNC(=N)N)C(=O)N[C@@H](C)C(=O)N[C@@H](Cc1ccc(O)cc1)C(=O)N[C@@H](Cc1ccc(O)cc1)C(=O)N[C@@H](CCCCN)C(=O)N[C@H](C(=O)N[C@@H](CO)C(N)=O)[C@@H](C)O [JBT0685 | 2021] (Ac-SGYASFPLAVQLHVSKRSKEMALARAYYKTS-NH2),–,–,9.13 µM
CSCC[C@H](NC(=O)[C@H](CCC(=O)O)NC(=O)[C@H](CCCCN)NC(=O)[C@H](CO)NC(=O)[C@H](CCCNC(=N)N)NC(=O)[C@H](CCCCN)NC(=O)[C@H](C)NC(=O)[C@@H](NC(=O)[C@H](Cc1c[nH]cn1)NC(=O)[C@H](CC(C)C)NC(=O)[C@H](CCC(N)=O)NC(=O)[C@@H](NC(=O)[C@H](C)NC(=O)[C@H](CC(C)C)NC(=O)[C@@H]1CCCN1C(=O)[C@H](Cc1ccccc1)NC(=O)[C@H](CO)NC(=O)[C@H](C)NC(=O)[C@H](Cc1ccc(O)cc1)NC(=O)CNC(=O)[C@H](CO)NC(C)=O)C(C)C)C(C)C)C(=O)N[C@@H](C)C(=O)N[C@@H](CC(C)C)C(=O)N[C@@H](C)C(=O)N[C@@H](CCCNC(=N)N)C(=O)N[C@@H](CC(C)C)C(=O)N[C@@H](Cc1ccc(O)cc1)C(=O)N[C@@H](Cc1ccc(O)cc1)C(=O)N[C@@H](CCCCN)C(=O)N[C@H](C(=O)N[C@@H](CO)C(N)=O)[C@@H](C)O [JBT0674 | 2008] (Ac-SGYASFPLAVQLHVAKRSKEMALARLYYKTS-NH2),–,–,1.17 µM
CSCC[C@H](NC(=O)[C@H](CCC(=O)O)NC(=O)[C@H](CCCCN)NC(=O)[C@H](CO)NC(=O)[C@H](CCCNC(=N)N)NC(=O)[C@H](CCCCN)NC(=O)[C@H](CO)NC(=O)[C@@H](NC(=O)[C@H](Cc1c[nH]cn1)NC(=O)[C@H](C)NC(=O)[C@H](CCC(N)=O)NC(=O)[C@@H](NC(=O)[C@H](C)NC(=O)[C@H](CC(C)C)NC(=O)[C@@H]1CCCN1C(=O)[C@H](Cc1ccccc1)NC(=O)[C@H](CO)NC(=O)[C@H](C)NC(=O)[C@H](Cc1ccc(O)cc1)NC(=O)CNC(=O)[C@H](CO)NC(C)=O)C(C)C)C(C)C)C(=O)N[C@@H](C)C(=O)N[C@@H](CC(C)C)C(=O)N[C@@H](C)C(=O)N[C@@H](CCCNC(=N)N)C(=O)N[C@@H](CC(C)C)C(=O)N[C@@H](Cc1ccc(O)cc1)C(=O)N[C@@H](Cc1ccc(O)cc1)C(=O)N[C@@H](CCCCN)C(=O)N[C@H](C(=O)N[C@@H](CO)C(N)=O)[C@@H](C)O [JBT0671 | 2019] (Ac-SGYASFPLAVQAHVSKRSKEMALARLYYKTS-NH2),–,–,5.84 µM
CSCC[C@H](NC(=O)[C@H](CCC(=O)O)NC(=O)[C@H](CCCCN)NC(=O)[C@H](CO)NC(=O)[C@H](CCCNC(=N)N)NC(=O)[C@H](C)NC(=O)[C@H](CO)NC(=O)[C@@H](NC(=O)[C@H](Cc1c[nH]cn1)NC(=O)[C@H](CC(C)C)NC(=O)[C@H](CCC(N)=O)NC(=O)[C@@H](NC(=O)[C@H](C)NC(=O)[C@H](CC(C)C)NC(=O)[C@@H]1CCCN1C(=O)[C@H](Cc1ccccc1)NC(=O)[C@H](CO)NC(=O)[C@H](C)NC(=O)[C@H](Cc1ccc(O)cc1)NC(=O)CNC(=O)[C@H](CO)NC(C)=O)C(C)C)C(C)C)C(=O)N[C@@H](C)C(=O)N[C@@H](CC(C)C)C(=O)N[C@@H](C)C(=O)N[C@@H](CCCNC(=N)N)C(=O)N[C@@H](CC(C)C)C(=O)N[C@@H](Cc1ccc(O)cc1)C(=O)N[C@@H](Cc1ccc(O)cc1)C(=O)N[C@@H](CCCCN)C(=O)N[C@H](C(=O)N[C@@H](CO)C(N)=O)[C@@H](C)O [JBT0675 | 2136] (Ac-SGYASFPLAVQLHVSARSKEMALARLYYKTS-NH2),–,–,18.3 µM
